Results reported in patent US20240085429A1, “ALTERING PROTEIN FUNCTION BY PHARMACOLOGICAL TARGETING OF MEMBRANE DOMAINS” (University of Virginia Patent Foundation, priority 2021, published 2024).
Structures can show the parent of a compound that is named as a salt.

Key:
Parameters in all cases: species or system human
[1] = test system: GPMVs derived from HeLa cells; experiment: Ten-point dose response of re-ordered hits in GPMVs; conditions: for percentage of phase separated vesicles as a function of increasing concentration: freshly made reordered stocks
Description: Compounds identified in the initial screens as potential hits were re-ordered and their identity verified by mass spectrometry by the Vanderbilt Chemical Synthesis Core. Ten-point dose response curves using ˜1:2 serial dilutions were generated producing a range of final concentration of 30 nM to […] and backfilled to yield equivalent concentrations of DMSO. Data were collected in duplicate for each concentration. Two independent dose response experiments were performed.

GPMVs from HeLa cells = experiment: Assay robustness, SSMD* based on % phase separated GPMVs; conditions: for SSMD* based on percentage of phase separated GPMVs: 10 mM (so in the source) vs DMSO, mean±SD, n=3; for SSMD* effect size class: classification per Zhang, 2011
Description: GPMVs were prepared as described above and incubated for 2 hours at RT. They were then seeded into a flat bottom, black-walled 96-well plates (Greiner Bio-One, Kremsmunster, Austria) coated with 0.1% bovine serum albumin and pre-loaded in a checkerboard pattern with DMSO, 10 mM TLCK, or 10 mM C6 ceramide (FIG. 12A). GPMVs were imaged using the ImageXpress Micro XL automated imager using a Nikon 40× super plan fluor ELWD objective and analyzed using the software described above to determine the percentage of phase separated vesicles in each well (FIG. 12B). An estimate for robust strictly standardized mean difference (SSMD*) (Zhang, X. D., Genomics 2007, 89 (4), 552-611; Zhang, X. D., et al., J Biomol Screen 2011, 16 (7), 775-85) was then calculated based on the percentage of phase separated vesicles per well as reported in the NBD-DSPE channel according to the following equation: […]
Here, XP and XN represent the medians of the percentage of phase separated vesicles for the positive controls (C6 ceramide or TLCK) and negative control (DMSO), respectively, whereas śP and śN correspond to the absolute deviations from the median for the positive and negative controls. Three independent GPMV preparations were analyzed on separate days to evaluate reproducibility (FIG. 12C).

[2] = test system: GPMVs generated from HeLa cells; experiment: Tmisc measurements (temperature scan of % phase separated GPMVs); conditions: 1 μM C6 ceramide or 10 μM TLCK, 2 independent experiments
Description: GPMVs were generated from HeLa cells and either labelled with NBD-DSPE and DiI as described above (TLCK experiments) or labelled with DiI-C12 (C6-cermide experiments). They were then treated with 1 μM C6 ceramide (Sigma Aldrich) or 10 μM TLCK (Cayman) for 1-2 h, mounted in a chamber formed from two coverslips separated by a silicon spacer in the continued presence of drug or an equivalent volume of DMSO (final concentration=0.1 mol %), and allowed to settle for 1 h prior to being imaged.
Tmisc measurements for GPMVs treated with C6-ceramide were performed using a Zeiss LSM 510 confocal microscope. […] DiI-C12 fluorescence was excited using the 543 nm line of a HeNe laser and images were collected at 1× digital zoom. […] For these datasets, the number of phase separated GPMVs was scored manually. […]
Tmisc measurements for GPMVs treated with TLCK were performed using a Zeiss A880 confocal microscope. […] NBD-DSPE fluorescence was excited using a 458 Argon laser line and detected using a 458/548 dichroic and 482-614 nm band pass filter. DiD fluorescence was excited using a 633 nm HeNe laser and emission was collected using a 633/698.5 dichroic and a 638-759 nm band pass filter. […] For these datasets, the percentages of phase separated GPMVs were scored using the “colocalization” method using the MATLAB algorithm described above. […]

Compound	effect on phase preference of NBD-DSPE (Pordered) versus concentration [1]	percentage of phase separated vesicles as a function of increasing concentration [1]	SSMD* based on percentage of phase separated GPMVs (GPMVs from HeLa cells)	SSMD* effect size class (GPMVs from HeLa cells)	change in Tmisc relative to DMSO [2]
CCCCCCCCCCCCC/C=C/[C@@H](O)[C@H](CO)NC(=O)CCCCC [C6 Ceramide (d18:1/6:0)]	dose-dependent	opposite effect	8.84±2.65	extremely strong	lowered Tmisc
Cc1ccc(S(=O)(=O)N[C@@H](CCCCN)C(=O)CCl)cc1 [TLCK hydrochloride, Nα-Tosyl-Lys Chloromethyl Ketone]	dose-dependent	systematically increased	1.34±0.29	moderate	increased Tmisc
